Test results from paper PMC5413024, “Mechanistic insights into the more potent effect of KP-54 compared to KP-10 in vivo” (PLoS ONE, 2017).
Converted amounts (≈) assume the structure as drawn.

Tests used:
[1] = tested on: plasma LH levels; experiment: Study 2: plasma LH after a high dose or multiple i.p. injections of KP-10; assay type: in vivo, mouse; settings: male mice, single i.p. injection of 1 nmol, mean ± s.e.m., n = 10
Protocol: Male mice received a single intraperitoneal (i.p.) injection of 100 μl of PBS (vehicle control), KP-10 (1 nmol), KP-10 (10 nmol), KP-54 (1 nmol) or a series of six i.p. injections (every 10 minutes over one hour) of KP-10 (1 nmol) to extend the duration of action of KP-10. 100 μl of blood was collected from a tail vein 10 min after the final injection and the mice were killed 2 hours after treatment by an injection of pentobarbital (100mg/kg i.p.). Blood was collected from the vena cava, mixed with 5 μl EDTA, centrifuged at 10,000 x g for 10 min at 4°C to obtain the plasma fraction, and stored at -20°C until assayed.
(§1) 3–5 month old wild-type (129S6/SvEv) male mice were used in this study. The mice were housed in open cages on a 12 hour light cycle (lights on at 0700 h) at a controlled temperature (22°C), and were provided with food and water ad libitum. All experiments were performed under the authority of a United Kingdom Home Office Project License and were approved by a Cambridge Animal Ethics Committee.
Plasma LH was assayed using a commercial ELISA kit (LH Ultrasensitive Rodent ELISA, Endocrine Technologies Cat Number ERK 7010+) with a sensitivity of 0.3 ng/ml and 7% intra-assay and 10% inter-assay coefficients of variation. […]

[2] = men / humans; ref [5], [30] (KP-10), ref [5] (KP-54); cited from earlier work
Text: It should be noted, however that the RIA used to measure KP-54 may also detect shorter breakdown products of this protein that might be biologically inert. It is likely that the lack of GnRH neuronal activation and sustained LH release by KP-10 is mainly due to its instability. It is noteworthy that we failed ...

[3] = tested on: plasma LH levels; experiment: Study 1: plasma LH after a single i.p. injection of kisspeptin; assay type: in vivo, mouse; settings: male mice, single i.p. injection of 1 nmol, ELISA, mean ± s.e.m.
Protocol: Male mice received a single intraperitoneal (i.p.) injection of 100 μl of PBS (vehicle control; 137 mM NaCl, 2.7 mM KCl, 10 mM Na2HPO4, 1.8mM KH2PO4, pH 7.4), KP-10 (1 nmol), or KP-54 (1 nmol) in PBS and LH levels in the plasma measured at 10 min and 2 h after treatment to compare early and late responses points. We chose the 10 min point as some studies have shown that KP-10 injection results in maximal LH secretion after 10–15 min [16, 18]. 100 μl of blood was collected from a tail vein 10 min after injection, mixed with 5 μl EDTA and centrifuged at 10,000 x g for 10 min at 4°C. The plasma supernatant was stored at -20°C until assayed. Two hours after injection, mice were deeply anaesthetized with pentobarbital (100mg/kg i.p.), ~300 μl of blood was rapidly collected from the vena cava and processed as described above. Finally the mice were perfused intracardially with 20 ml of 4% paraformaldehyde in PBS. Brains were removed and incubated for 1 h in the same fixative as for perfusion and placed in PBS for sectioning and immunohistochemistry processing.
3–5 month old wild-type (129S6/SvEv) male mice were used in this study. The mice were housed in open cages on a 12 hour light cycle (lights on at 0700 h) at a controlled temperature (22°C), and were provided with food and water ad libitum. […]

[4] = Study 4: pharmacokinetics of plasma kisspeptin after i.p. injection (radioimmunoassay); assay type: in vivo, mouse; settings: male mice, 1 nmol i.p.
Protocol: Male mice received a single i.p. injection of 1 nmol KP-10 or 1 nmol KP-54. 100 μl of blood was collected from the lateral tail vein from groups of mice (n = 4) for each time point (0, 1 min, 2 min, 5 min, 10 min, 30 min, 60 min and 120 min). Terminal bleeds were collected from the vena cava. Blood was mixed with 5 μl EDTA, centrifuged at 10,000 x g for 10 min at 4°C to obtain the plasma fraction, and stored at -20°C until assayed. Kisspeptin concentrations were measured using an established in house competitive radioimmunoassay (RIA, [5]. Briefly, this RIA uses a sheep polyclonal antibody (GQ2), raised against human KP-54, which cross-reacts with human KP-54, KP-14 and KP-10.
as §1

[5] = from the product data sheets; ref product data sheets (manufacturer); cited from earlier work
Protocol: KP-10 [human Metastin (45–54) amide, M-2816] was purchased from Sigma-Aldrich. KP-10 consists of the C-terminal 10-amino acids of KP-54. Human KP-54 was synthesized by the Advanced Biotechnology Centre, Imperial College, London, UK. BSA-FITC was purchased from Sigma (A9771). From the product data sheets, the solubility of KP-10 and KP-54 in water is 1mg/ml. We prepared stock solutions in sterile PBS at 100 μM, which is almost ten times lower than the solubility limit set by the manufacturer. The 100 μM stock solution was diluted in sterile PBS and 100 μl of the working solution was injected to ...

level at time molar at 0.5 h ([4]; 129S6/SvEv, mouse, plasma, ip, RIA, mean ± SEM, n = 4, read-out: plasma kisspeptin level at 30 min post-injection): 13.2 ± 4.36 nM | level at time molar at 1 h ([4]; 129S6/SvEv, mouse, plasma, ip, RIA, mean ± SEM, n = 4, read-out: plasma kisspeptin level at 60 min post-injection): 5.03 ± 0.787 nM | level at time molar at 2 h ([4]; 129S6/SvEv, mouse, plasma, ip, RIA, mean ± SEM, n = 4, read-out: plasma kisspeptin level at 120 min post-injection): 1.19 ± 0.33 nM | peak (maximum) plasma kisspeptin level ([4]; RIA (GQ2 antibody), mean ± SEM, n = 4 per time point): 12292 ± 2655 pmol/L | time of peak plasma kisspeptin level post-injection ([4]; RIA, n = 4 per time point): 5 min | plasma half-life ([4]; estimated from RIA plasma levels, RIA recognises all forms of Kp, may include breakdown products): around 32 min | fraction of the injected peptide entering the bloodstream after intraperitoneal injection ([4]; assuming a total blood volume of approximately 5 ml): ~6%
Structure (SMILES): CC[C@H](C)[C@H](NC(=O)[C@H](CCC(N)=O)NC(=O)[C@H](CCCNC(=N)N)NC(=O)[C@H](CO)NC(=O)[C@H](Cc1c[nH]cn1)NC(=O)[C@@H]1CCCN1C(=O)[C@H](C)NC(=O)[C@H](CO)NC(=O)[C@H](CC(C)C)NC(=O)CNC(=O)[C@@H]1CCCN1C(=O)[C@H](CCC(N)=O)NC(=O)[C@H](CCC(N)=O)NC(=O)[C@H](CCCNC(=N)N)NC(=O)[C@H](CO)NC(=O)CNC(=O)[C@H](CO)NC(=O)[C@H](CO)NC(=O)[C@H](CCC(=O)O)NC(=O)[C@@H]1CCCN1C(=O)[C@@H]1CCCN1C(=O)[C@@H]1CCCN1C(=O)[C@H](CO)NC(=O)[C@H](CC(C)C)NC(=O)[C@H](CO)NC(=O)[C@@H](NC(=O)CN)[C@@H](C)O)C(=O)N1CCC[C@H]1C(=O)N[C@@H](C)C(=O)N1CCC[C@H]1C(=O)N[C@@H](CCC(N)=O)C(=O)NCC(=O)N[C@@H](C)C(=O)N[C@H](C(=O)N[C@@H](CC(C)C)C(=O)N[C@H](C(=O)N[C@@H](CCC(N)=O)C(=O)N[C@@H](CCCNC(=N)N)C(=O)N[C@@H](CCC(=O)O)C(=O)N[C@@H](CCCCN)C(=O)N[C@@H](CC(=O)O)C(=O)N[C@@H](CC(C)C)C(=O)N1CCC[C@H]1C(=O)N[C@@H](CC(N)=O)C(=O)N[C@@H](Cc1ccc(O)cc1)C(=O)N[C@@H](CC(N)=O)C(=O)N[C@@H](Cc1c[nH]c2ccccc12)C(=O)N[C@@H](CC(N)=O)C(=O)N[C@@H](CO)C(=O)N[C@@H](Cc1ccccc1)C(=O)NCC(=O)N[C@@H](CC(C)C)C(=O)N[C@@H](CCCNC(=N)N)C(=O)N[C@@H](Cc1ccccc1)C(N)=O)C(C)C)C(C)C [KP-54]
plasma LH level at 2 hrs [1]: 9.62 ± 1.67 ng/mL | half-life in the blood stream in humans [2]: 28 min | plasma LH level 10 min post-injection ([3]; tail vein blood, n = 8, PBS 0.06 ± 0.04): 5.70 ± 0.69 ng/mL | plasma LH level 2 hours post-injection ([3]; vena cava blood, n = 8): 6.42 ± 1.74 ng/mL | solubility in water [5]: 1000 µg/mL (≈ 171 µM)
